Test [1] deals with EGFR(Dell9_T790M_C797S) (aa 669-1210, in house) (Homo sapiens, UniProt P00533, T790M/C797S, form not given). The test can be described thus: Biochemical EGFR inhibition assay (TR-FRET), Del19/T790M/C797S mutant. The settings on record: ATP at Km, 15 min pre-incubation, 60 min reaction; read-out: Del_TM_CS (Km ATP) IC50. In a few lines:
(§1)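 TR-FRET readout (665/620 nm ratio, Eu-cryptate anti-phosphotyrosine plus XL665-streptavidin) of biotin-poly GT phosphorylation after 60 min at room temperature, ATP at Km, following 15 min compound pre-incubation with enzyme in pH 7.5 HEPES/MgCl2 buffer; four-parameter logistic fitting gave IC50.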

Test [2] addresses T1, EGFR (aa668-1210, Invitrogen) (Homo sapiens, UniProt P00533).
T1 construct: EGFR (aa668-1210, Invitrogen); purchased Invitrogen
The test can be described thus: Biochemical EGFR inhibition assay (TR-FRET), wild-type EGFR. The settings on record: ATP at Km, 15 min pre-incubation, 60 min reaction; read-out: WT (Km ATP) IC50. A digest of the protocol:
as §1
On the technique in general: TR-FRET usually uses a lanthanide donor and a delayed reading to cut background.

The target in the next test is BaF3-WT cells (Homo sapiens, UniProt P00533). Nature of the test: Cell antiproliferation assay (CellTiter-Glo), BaF3-WT. Type of test: cell-based. The settings on record: 48 h treatment, read-out: BaF3-WT IC50. How it is done: (§2) BaF3 cells are treated with compounds diluted in 0.2% DMSO, dilution is done according to the following protocol: (1) make 500× stock solution in DMSO from 5 mM by 5-fold dilution, total 8 doses were included; (2) make 10× solution in cell culture medium by transferring 2 μl 500× stock solution into 98 μl medium; (3) 10 μl of 10× solution is added to cells and incubate for 48 h.
BaF3-WT cells, sequence (P00533 whole entry, change not shown): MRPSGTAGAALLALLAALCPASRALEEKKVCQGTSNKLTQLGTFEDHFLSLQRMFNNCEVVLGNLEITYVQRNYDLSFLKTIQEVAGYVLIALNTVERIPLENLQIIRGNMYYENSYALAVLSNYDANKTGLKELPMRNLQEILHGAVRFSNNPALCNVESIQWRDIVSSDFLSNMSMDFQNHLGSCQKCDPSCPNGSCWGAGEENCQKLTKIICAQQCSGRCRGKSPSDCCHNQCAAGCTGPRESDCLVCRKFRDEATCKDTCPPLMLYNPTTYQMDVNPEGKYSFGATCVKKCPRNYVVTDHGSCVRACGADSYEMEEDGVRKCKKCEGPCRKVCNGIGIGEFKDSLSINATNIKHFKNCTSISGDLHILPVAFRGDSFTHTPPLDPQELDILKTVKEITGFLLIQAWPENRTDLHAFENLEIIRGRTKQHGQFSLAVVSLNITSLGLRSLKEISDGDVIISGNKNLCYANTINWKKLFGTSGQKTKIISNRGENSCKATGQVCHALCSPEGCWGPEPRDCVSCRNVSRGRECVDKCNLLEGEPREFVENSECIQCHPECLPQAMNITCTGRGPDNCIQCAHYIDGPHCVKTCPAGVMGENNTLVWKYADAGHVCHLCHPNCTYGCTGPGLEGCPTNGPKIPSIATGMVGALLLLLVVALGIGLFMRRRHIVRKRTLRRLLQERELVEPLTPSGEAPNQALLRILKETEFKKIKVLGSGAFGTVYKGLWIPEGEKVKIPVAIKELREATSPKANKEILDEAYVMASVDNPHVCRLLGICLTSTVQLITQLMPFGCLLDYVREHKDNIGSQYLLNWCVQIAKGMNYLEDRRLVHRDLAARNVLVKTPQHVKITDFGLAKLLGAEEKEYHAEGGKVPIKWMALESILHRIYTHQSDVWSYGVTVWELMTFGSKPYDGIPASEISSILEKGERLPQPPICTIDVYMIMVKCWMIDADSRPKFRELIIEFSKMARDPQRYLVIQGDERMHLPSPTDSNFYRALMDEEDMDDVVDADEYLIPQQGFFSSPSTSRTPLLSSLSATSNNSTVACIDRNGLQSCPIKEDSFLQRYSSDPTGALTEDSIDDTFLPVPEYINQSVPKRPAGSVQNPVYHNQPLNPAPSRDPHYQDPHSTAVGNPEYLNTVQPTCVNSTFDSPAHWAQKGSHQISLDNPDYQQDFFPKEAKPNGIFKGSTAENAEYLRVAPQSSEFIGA
(§3) After 48 h treatment, add 30 μl CellTiter-Glo reagent[CellTiter-Glo® 2.0, (Promega, Cat #G9242)] to each well; seal the plate and incubate 2 min at room temperature on a plate shaker; Allow the plate to incubate at room temperature for 10 minutes to stabilize the luminescent signal. Record luminescence on BMG PheraStar with luminescence protocol.
(§4) The IC50 value of a compound can be obtained by fitting the following equation
(§5) Wherein, X and Y are known values, and IC50, Hillslope, Top and Bottom are the parameters obtained by fitting with software. Y is the inhibition percentage (calculated from the equation), X is the concentration of the compound; IC50 is the concentration of the compound when the 50% inhibition is reached. The smaller the IC50 value is, the stronger the inhibitory ability of the compound is. Vice versa, the higher the IC50 value is, the weaker the ability the inhibitory ability of the compound is; Hillslope represents the slope of the fitted curve, generally around 1 *; Bottom represents the minimum value of the curve obtained by data fitting, which is generally 0%±20%; Top represents the maximum value of the curve obtained by data fitting, which is generally 100%±20%. The experimental data were fitted by calculating and analyzing with Dotmatics data analysis software.
A general note: Cellular ATP, detected with luciferase, serves as a proxy for viable cell number.

Another test deals with BaF3-Del_TM_CS cells (Homo sapiens, UniProt P00533, T790M/C797S, cells depend on it, form not given). The test can be described thus: Cell antiproliferation assay (CellTiter-Glo), BaF3-Del_TM_CS. Type of test: cell-based. The settings on record: 48 h treatment, read-out: BaF3-Del_TM_CS IC50. How it is done: as §2, §3, §4, §5
BaF3-Del_TM_CS cells, sequence (P00533 with tags, fused parts or gaps DEL746-750/T790M/C797S, form open): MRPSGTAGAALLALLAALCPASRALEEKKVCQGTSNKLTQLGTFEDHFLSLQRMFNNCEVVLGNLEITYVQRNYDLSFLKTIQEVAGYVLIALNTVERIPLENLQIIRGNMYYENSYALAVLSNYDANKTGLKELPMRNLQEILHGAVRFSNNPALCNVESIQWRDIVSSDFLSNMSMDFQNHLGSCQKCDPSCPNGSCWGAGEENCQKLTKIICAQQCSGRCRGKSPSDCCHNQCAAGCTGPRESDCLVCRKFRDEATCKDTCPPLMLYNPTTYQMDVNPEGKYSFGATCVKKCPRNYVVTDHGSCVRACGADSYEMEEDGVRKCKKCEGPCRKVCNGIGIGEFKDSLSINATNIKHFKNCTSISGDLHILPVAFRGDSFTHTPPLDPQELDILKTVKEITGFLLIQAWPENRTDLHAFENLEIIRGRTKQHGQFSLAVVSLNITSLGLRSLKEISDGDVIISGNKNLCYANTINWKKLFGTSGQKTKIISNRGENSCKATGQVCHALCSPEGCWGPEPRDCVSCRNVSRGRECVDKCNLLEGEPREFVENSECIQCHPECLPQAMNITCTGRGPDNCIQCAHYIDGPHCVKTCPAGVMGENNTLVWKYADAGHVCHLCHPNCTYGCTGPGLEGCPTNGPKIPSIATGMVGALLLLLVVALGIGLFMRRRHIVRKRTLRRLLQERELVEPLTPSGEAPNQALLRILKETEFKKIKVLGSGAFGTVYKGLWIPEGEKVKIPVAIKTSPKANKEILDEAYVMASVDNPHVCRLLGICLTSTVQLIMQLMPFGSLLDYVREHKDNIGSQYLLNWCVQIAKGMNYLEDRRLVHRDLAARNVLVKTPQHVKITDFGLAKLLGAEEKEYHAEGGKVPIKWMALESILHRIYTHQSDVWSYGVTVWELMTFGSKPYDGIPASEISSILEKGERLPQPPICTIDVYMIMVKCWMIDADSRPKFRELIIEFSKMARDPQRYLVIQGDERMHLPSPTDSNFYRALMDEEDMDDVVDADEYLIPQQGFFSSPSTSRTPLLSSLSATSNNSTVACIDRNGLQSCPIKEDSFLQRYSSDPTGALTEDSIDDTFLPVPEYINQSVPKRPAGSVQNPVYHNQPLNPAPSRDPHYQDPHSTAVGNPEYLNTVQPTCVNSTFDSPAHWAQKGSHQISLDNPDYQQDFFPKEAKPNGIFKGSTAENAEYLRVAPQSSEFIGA
In test [3] the target is T2, EGFR(L858R_T790M_C797S) (aa695-end, Invitrogen) (Homo sapiens, UniProt P00533, C797S/L858R/T790M).
T2 construct: purchased Invitrogen
T2 sequence (P00533 695-1210 T790M/C797S/L858R): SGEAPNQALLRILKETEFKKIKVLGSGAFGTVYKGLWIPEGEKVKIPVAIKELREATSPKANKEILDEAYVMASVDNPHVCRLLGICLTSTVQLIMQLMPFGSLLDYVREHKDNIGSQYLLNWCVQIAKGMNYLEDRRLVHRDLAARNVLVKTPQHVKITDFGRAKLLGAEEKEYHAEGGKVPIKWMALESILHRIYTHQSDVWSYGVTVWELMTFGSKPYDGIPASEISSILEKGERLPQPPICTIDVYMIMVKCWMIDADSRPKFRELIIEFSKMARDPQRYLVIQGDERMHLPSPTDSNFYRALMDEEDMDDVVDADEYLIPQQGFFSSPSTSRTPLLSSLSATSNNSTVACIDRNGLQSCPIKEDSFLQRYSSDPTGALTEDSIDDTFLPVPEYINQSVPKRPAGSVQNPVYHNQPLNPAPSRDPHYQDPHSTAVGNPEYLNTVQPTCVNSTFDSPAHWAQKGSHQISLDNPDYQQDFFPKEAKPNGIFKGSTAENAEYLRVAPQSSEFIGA
Nature of the test: Biochemical EGFR inhibition assay (TR-FRET), L858R/T790M/C797S mutant. The settings on record: ATP at Km, 15 min pre-incubation, 60 min reaction; read-out: LR_TM_CS (Km ATP) IC50. A digest of the protocol: as §1

The target in the next test is BaF3-LR_TM_CS cells (Homo sapiens, UniProt P00533, T790M/C797S/L858R, cells depend on it). Nature of the test: Cell antiproliferation assay (CellTiter-Glo), BaF3-LR_TM_CS. The test is classed as cell-based. The settings on record: 48 h treatment, read-out: BaF3-LR_TM_CS IC50. How it is done:
as §2, §3, §4, §5

pIC50: −log10 of the molar value.

T1 sequence (P00533 668-1210): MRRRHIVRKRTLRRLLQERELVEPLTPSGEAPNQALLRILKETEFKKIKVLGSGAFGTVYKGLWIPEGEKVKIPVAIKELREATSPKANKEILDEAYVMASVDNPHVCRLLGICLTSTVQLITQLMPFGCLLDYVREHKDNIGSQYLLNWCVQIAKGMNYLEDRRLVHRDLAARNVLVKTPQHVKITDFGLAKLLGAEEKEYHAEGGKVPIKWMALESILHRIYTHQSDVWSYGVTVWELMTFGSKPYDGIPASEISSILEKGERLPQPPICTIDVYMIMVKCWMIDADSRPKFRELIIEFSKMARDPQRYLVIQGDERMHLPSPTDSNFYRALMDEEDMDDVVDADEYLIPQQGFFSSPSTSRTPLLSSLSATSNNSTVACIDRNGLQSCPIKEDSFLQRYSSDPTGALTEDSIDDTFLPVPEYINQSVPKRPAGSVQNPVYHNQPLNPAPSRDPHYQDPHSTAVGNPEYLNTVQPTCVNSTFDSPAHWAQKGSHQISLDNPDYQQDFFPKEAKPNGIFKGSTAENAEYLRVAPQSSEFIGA
EGFR(Dell9_T790M_C797S) (aa 669-1210, in house), sequence (P00533 with tags, fused parts or gaps DEL746-750/T790M/C797S, form open): as the sequence (P00533 with tags, fused parts or gaps DEL746-750/T790M/C797S, form open) above

`COc1cc(N2CCC(N3CCN(C)CC3)CC2)ccc1Nc1ncc(Br)c(Nc2cccc3c2N(S(C)(=O)=O)CC3)n1` [Example 34, 5-bromo-N2-(2-methoxy-4-(4-(4-methylpiperazin-1-yl)piperidin-1-yl)phenyl)-N4-(1-(methylsulfonyl)indolin-7-yl)pyrimidine-2,4-diamine]: the pIC50 (as a rule, the negative decadic logarithm of the IC50, by convention in mol/L) is 9.62 in test [1], 9.14 in test [2] and 9.68 in test [3]. Besides, the GI50 at BaF3-WT cells came to 427 nM; at BaF3-Del_TM_CS cells it was 4.25 nM; at BaF3-LR_TM_CS cells, 13 nM.
As for `COc1cc(N2CCC(N3CCN(C)CC3)CC2)ccc1Nc1ncc(C)c(Nc2cccc3c2N(S(C)(=O)=O)CC3)n1` [Example 35, N^2-(2-methoxy-4-(4-(4-methylpiperazin-1-yl)piperidin-1-yl)phenyl)-5-methyl-N^4-(1-(methylsulfonyl)indolin-7-yl)pyrimidine-2,4-diamine], the pIC50 is 9.85 in test [1], 9.64 in test [2] and 9.85 in test [3]. In addition, the GI50 was 604 nM on BaF3-WT cells, 79.9 nM on BaF3-Del_TM_CS cells and 222 nM at BaF3-LR_TM_CS cells.
As for `COc1cc(N2CCC(N(C)C)CC2)ccc1Nc1ncc(Cl)c(Nc2cccc3c2N(S(C)(=O)=O)CC3)n1` [Example 36, 5-chloro-N^2-(4-(4-(dimethylamino)piperidin-1-yl)-2-methoxyphenyl)-N^4-(1-(methylsulfonyl)indolin-7-yl)pyrimidine-2,4-diamine], the negative logarithm of the IC50 (pIC50) was 9.66 in test [1], 9.25 in test [2] and 9.39 in test [3]. In addition, the GI50 on BaF3-WT cells came out at 414 nM; at BaF3-Del_TM_CS cells, 10 nM; at BaF3-LR_TM_CS cells, 25.9 nM.
Take `COc1cc(N2CCC(N3CCN(C)CC3)CC2)c(C)cc1Nc1ncc(Cl)c(Nc2cccc3c2N(S(C)(=O)=O)CC3)n1` [Example 39, 5-chloro-N^2-(2-methoxy-5-methyl-4-(4-(4-methylpiperazin-1-yl)piperidin-1-yl)phenyl)-N^4-(1-(methylsulfonyl)indolin-7-yl)pyrimidine-2,4-diamine]: the pIC50 in test [1] was 9.46; in test [2] it was 9.44; in test [3], 9.55. Also, the values for the GI50 at BaF3-WT cells, on BaF3-Del_TM_CS cells and at BaF3-LR_TM_CS cells were 500 nM, 4.54 nM and 11.4 nM, respectively.
For the molecule `COc1cc(N2CCC(N3CCN(C)CC3)CC2)c(C)cc1Nc1ncc(Br)c(Nc2cccc3c2N(S(C)(=O)=O)CC3)n1` [Example 40, 5-bromo-N^2-(2-methoxy-5-methyl-4-(4-(4-methylpiperazin-1-yl)piperidin-1-yl)phenyl)-N^4-(1-(methylsulfonyl)indolin-7-yl)pyrimidine-2,4-diamine], the negative-log IC50 (pIC50) in test [1] was 9.44; in test [2] it was 9.11; in test [3], 9.68. Besides, the GI50 on BaF3-WT cells was 230 nM; on BaF3-Del_TM_CS cells, 1.56 nM; on BaF3-LR_TM_CS cells, 4.91 nM.
With `CCc1cc(Nc2ncc(Cl)c(Nc3cccc4c3N(S(C)(=O)=O)CC4)n2)c(OC)cc1N1CCC(N2CCN(C)CC2)CC1` [Example 41, 5-chloro-N^2-(5-ethyl-2-methoxy-4-(4-(4-methylpiperazin-1-yl)piperidin-1-yl)phenyl)-N^4-(1-(methylsulfonyl)indolin-7yl)pyrimidine-2,4-diamine], the pIC50 in test [1] was 9.29; in test [2], 9.09; in test [3], 9.17. The GI50 at BaF3-WT cells was determined as 610 nM; on BaF3-Del_TM_CS cells, 6.06 nM; at BaF3-LR_TM_CS cells, 15.4 nM.
With `CN(C)C1CCN(c2ccc(Nc3ncc(Cl)c(Nc4cccc5c4N(S(C)(=O)=O)CC5)n3)c3c2CCO3)CC1` [Example 47, 5-chloro-N^2-(4-(4-(dimethylamino)piperidin-1-yl)-2,3-dihydrobenzofuran-7-yl)-N^4-(1-(methylsulfonyl)indolin-7-yl)pyrimidine-2,4-diamine], the results for the negative logarithm of the IC50 (pIC50) in test [1], in test [2] and in test [3] were 9.52, 8.42 and 9.07, respectively. Besides, the results for the GI50 on BaF3-WT cells, at BaF3-Del_TM_CS cells and on BaF3-LR_TM_CS cells were 630 nM, 12.3 nM and 37.8 nM, respectively.
`CN(C)C1CCN(c2ccc(Nc3ncc(Br)c(Nc4cccc5c4N(S(C)(=O)=O)CC5)n3)c3c2CCO3)CC1` [Example 48, 5-bromo-N^2-(4-(4-(dimethylamino)piperidin-1-yl)-2,3-dihydrobenzofuran-7-yl)-N^4-(1-(methylsulfonyl)indolin-7-yl)pyrimidine-2,4-diamine]: the pIC50 was 9.74 in test [1], 8.36 in test [2] and 9.52 in test [3]. For the same molecule, the values for the GI50 on BaF3-WT cells, on BaF3-Del_TM_CS cells and on BaF3-LR_TM_CS cells were 361 nM, 3.56 nM and 30.5 nM, respectively.
As for `CN1CCN(C2CCN(c3ccc(Nc4ncc(Cl)c(Nc5cccc6c5N(S(C)(=O)=O)CC6)n4)c4c3CCO4)CC2)CC1` [Example 49, 5-chloro-N^2-(4-(4-(4-methylpiperazin-1-yl)piperidin-1-yl)-2,3-dihydrobenzofuran-7-yl)-N^4-(1-(methylsulfonyl)indolin-7-yl)pyrimidine-2,4-diamine], the negative-log IC50 (pIC50) is 9.35 in test [1], 8.42 in test [2] and 9.02 in test [3]. The GI50 on BaF3-WT cells worked out at 1510 nM; at BaF3-Del_TM_CS cells, 19.3 nM; on BaF3-LR_TM_CS cells, 79.3 nM.
As to `CN1CCN(C2CCN(c3ccc(Nc4ncc(Br)c(Nc5cccc6c5N(S(C)(=O)=O)CC6)n4)c4c3CCO4)CC2)CC1` [Example 50, 5-bromo-N^2-(4-(4-(4-methylpiperazin-1-yl)piperidin-1-yl)-2,3-dihydrobenzofuran-7-yl)-N^4-(1-(methylsulfonyl)indolin-7-yl)pyrimidine-2,4-diamine], the values for the pIC50 in test [1], in test [2] and in test [3] were 9.20, 7.85 and 9.00, respectively. For the same molecule, the GI50 on BaF3-WT cells amounted to 2730 nM; on BaF3-Del_TM_CS cells it was 19 nM; at BaF3-LR_TM_CS cells, 176 nM.
For the molecule `CN(C)C1CCN(c2ccc(Nc3ncc(Cl)c(Nc4cccc5c4N(S(C)(=O)=O)CC5)n3)c3c2OCO3)CC1` [Example 51, 5-chloro-N2-(7-(4-(dimethylamino)piperidin-1-yl)benzo[d][1,3]dioxol-4-yl)-N4-(1-(methylsulfonyl)indolin-7-yl)pyrimidine-2,4-diamine], the negative-log IC50 (pIC50) in test [1] is 9.72; in test [2], 8.38; in test [3], 9.10. The figures for the GI50 on BaF3-WT cells, on BaF3-Del_TM_CS cells and at BaF3-LR_TM_CS cells were 235 nM, 10.1 nM and 35.9 nM, respectively.
On to `CN(C)C1CCN(c2ccc(Nc3ncc(Br)c(Nc4cccc5c4N(S(C)(=O)=O)CC5)n3)c3c2OCO3)CC1` [Example 52, 5-bromo-N^2-(7-(4-(dimethylamino)piperidin-1-yl)benzo[d][1,3]dioxol-4-yl)-N^4-(1-(methylsulfonyl)indolin-7-yl)pyrimidine-2,4-diamine], for which the pIC50 is 9.92 in test [1], 8.26 in test [2] and 9.38 in test [3]. The GI50 on BaF3-WT cells amounted to 145 nM; on BaF3-Del_TM_CS cells, 11.2 nM; at BaF3-LR_TM_CS cells it was 18.7 nM.
For `CN(C)C1CCN(c2ccc(Nc3ncc(Br)c(Nc4cccc5c4N(S(C)(=O)=O)CC5)n3)c3c2OCCO3)CC1` [Example 54, 5-bromo-N^2-(8-(4-(dimethylamino)piperidin-1-yl)-2,3-dihydrobenzo[b][1,4]dioxin-5-yl)-N^4-(1-(methylsulfonyl)indolin-7-yl)pyrimidine-2,4-diamine], the pIC50 in test [1] was 9.80; in test [2], 8.32; in test [3], 9.60. The GI50 was found to be 372 nM at BaF3-WT cells, 18.6 nM at BaF3-Del_TM_CS cells and 42.4 nM on BaF3-LR_TM_CS cells.

The record behind these values is US20260167619A2, “INDOLINE COMPOUNDS AND DERIVATIVES AS EGFR INHIBITORS” (BeOne Medicines I GmbH, priority 2020, published 2026).
